Experimental data from US10766894B2, “Aza-indazole compounds for use in tendon and/or ligament injuries” (NOVARTIS AG, priority 2016, dated 2020).

Tested on: mouse immortalized TT-D6 Scx-luciferase (ScxL) cell line; transcriptional activation of Scleraxis (Scx) gene
Test: SCX-LUC in vitro assay (scleraxis promoter luciferase reporter)
Format: cell-based
Conditions: Mus musculus, 96 h; Examples table; TT-D6 Scx-luciferase cells, 1 ng/ml TGFβ1, four days; read-out: Scx-Luc (EC50 μM)

First: Nc1n[nH]c2ccc(-c3ccc(S(=O)(=O)NC4CC(F)(F)C4)cc3Cl)nc12 [Example 4, 4-(3-amino-1H-pyrazolo[4,3-b]pyridin-5-yl)-3-chloro-N-(3,3-difluorocyclobutyl)benzenesulfonamide]
Second: Nc1n[nH]c2ccc(-c3ccc(S(=O)(=O)N[C@H]4C[C@@H](CO)C4)cc3Cl)nc12 [Example 85, 4-(3-amino-1H-pyrazolo[4,3-b]pyridin-5-yl)-3-chloro-N-((1s,3s)-3-(hydroxymethyl)cyclobutyl)benzenesulfonamide]
The EC50 of the first is 3.9-fold lower: 0.444 µM for the first, 1.75 µM for the second. The first is the more potent here.

Going from Nc1n[nH]c2ccc(-c3ccc(S(=O)(=O)N[C@@H]4CCC[C@H]4O)cc3Cl)nc12 [Example 29, 4-(3-amino-1H-pyrazolo[4,3-b]pyridin-5-yl)-3-chloro-N-((1R,2R)-2-hydroxycyclopentyl)benzenesulfonamide] to Nc1n[nH]c2ccc(-c3ccc(S(=O)(=O)N[C@H]4CCC[C@@H]4O)cc3Cl)nc12 [Example 94, 4-(3-amino-1H-pyrazolo[4,3-b]pyridin-5-yl)-3-chloro-N-((1S,2S)-2-hydroxycyclopentyl)benzenesulfonamide], the EC50 falls from 1.91 µM to 0.026 µM (73-fold).

Compared with Cc1cc(S(=O)(=O)N[C@@H]2CCC[C@@H]2O)ccc1-c1ccc2[nH]nc(N)c2n1 [Example 20, 4-(3-amino-1H-pyrazolo[4,3-b]pyridin-5-yl)-N-((1R,2S)-2-hydroxycyclopentyl)-3-methylbenzenesulfonamide], Cc1cc(S(=O)(=O)N[C@@H]2CC[C@H](O)C2)ccc1-c1ccc2[nH]nc(N)c2n1 [Example 19, 4-(3-amino-1H-pyrazolo[4,3-b]pyridin-5-yl)-N-((1R,3S)-3-hydroxycyclopentyl)-3-methylbenzenesulfonamide] is 2.1-fold higher in EC50: 0.797 µM for the first, 1.7 µM for the second. The first is the more potent here.

Going from Nc1n[nH]c2ccc(-c3ccc(S(=O)(=O)Nc4cccc(F)c4F)cc3Cl)nc12 [Example 81, 4-(3-amino-1H-pyrazolo[4,3-b]pyridin-5-yl)-3-chloro-N-(2,3-difluorophenyl)benzenesulfonamide] to Nc1n[nH]c2ccc(-c3ccc(NS(=O)(=O)c4ccc(F)c(Cl)c4)cc3Cl)nc12 [Example 27, N-(4-(3-amino-1H-pyrazolo[4,3-b]pyridin-5-yl)-3-chlorophenyl)-3-chloro-4-fluorobenzenesulfonamide], the EC50 rises from 0.203 µM to 1.08 µM (5.3-fold).

Cc1cc(S(=O)(=O)N[C@H]2CC[C@@](O)(C(F)(F)F)CC2)ccc1-c1ccc2[nH]nc(N)c2n1 [Example 68, 4-(3-amino-1H-pyrazolo[4,3-b]pyridin-5-yl)-N-((1r,4r)-4-hydroxy-4-(trifluoromethyl)cyclohexyl)-3-methylbenzenesulfonamide] and Cc1cc(S(=O)(=O)NC2CCCCC2)ccc1-c1ccc2[nH]nc(N)c2n1 [Example 39, 4-(3-amino-1H-pyrazolo[4,3-b]pyridin-5-yl)-N-cyclohexyl-3-methylbenzenesulfonamide] are within 1.5-fold of each other in EC50: 0.354 µM for the first, 0.473 µM for the second.

First: Nc1n[nH]c2ccc(-c3ccc(S(=O)(=O)N[C@H]4CC[C@@H](O)CC4)cc3Cl)nc12 [Example 48, 4-(3-amino-1H-pyrazolo[4,3-b]pyridin-5-yl)-3-chloro-N-((1s,4s)-4-hydroxycyclohexyl)benzenesulfonamide]
Second: Nc1n[nH]c2ccc(-c3ccc(S(=O)(=O)N[C@H]4CC[C@H](O)CC4)cc3Cl)nc12 [Example 45, 4-(3-amino-1H-pyrazolo[4,3-b]pyridin-5-yl)-3-chloro-N-((1r,4r)-4-hydroxycyclohexyl)benzenesulfonamide]
The EC50 of the first is 2.3-fold lower: 2.02 µM for the first, 4.73 µM for the second.

Compared with Nc1n[nH]c2ccc(-c3ccc(S(=O)(=O)NC4(CO)CCCC4)cc3Cl)nc12 [Example 30, 4-(3-amino-1H-pyrazolo[4,3-b]pyridin-5-yl)-3-chloro-N-(1-(hydroxymethyl)cyclopentyl)benzenesulfonamide], Cc1cc(S(=O)(=O)NC2(CO)CCCC2)ccc1-c1ccc2[nH]nc(N)c2n1 [Example 26, 4-(3-amino-1H-pyrazolo[4,3-b]pyridin-5-yl)-N-(1-(hydroxymethyl)cyclopentyl)-3-methylbenzenesulfonamide] is 2.6-fold lower in EC50: 2.07 µM for the first, 0.811 µM for the second.

Compared with N#Cc1cccc(S(=O)(=O)Nc2ccc(-c3ccc4[nH]nc(N)c4n3)c(Cl)c2)c1 [Example 22, N-(4-(3-amino-1H-pyrazolo[4,3-b]pyridin-5-yl)-3-chlorophenyl)-3-cyanobenzenesulfonamide], Nc1n[nH]c2ccc(-c3ccc(NS(=O)(=O)c4cccc(Cl)c4)cc3Cl)nc12 [Example 28, N-(4-(3-amino-1H-pyrazolo[4,3-b]pyridin-5-yl)-3-chlorophenyl)-3-chlorobenzenesulfonamide] is 71-fold higher in EC50: 0.035 µM for the first, 2.5 µM for the second.

Nc1n[nH]c2ccc(-c3ccc(NS(=O)(=O)c4ccc(Cl)c(Cl)c4)cc3Cl)nc12 [Example 43, N-(4-(3-amino-1H-pyrazolo[4,3-b]pyridin-5-yl)-3-chlorophenyl)-3,4-dichlorobenzenesulfonamide] and Nc1n[nH]c2ccc(-c3ccc(S(=O)(=O)Nc4cccc(Cl)c4)cc3Cl)nc12 [Example 90, 4-(3-amino-1H-pyrazolo[4,3-b]pyridin-5-yl)-3-chloro-N-(3-chlorophenyl)benzenesulfonamide] are within 1.5-fold of each other in EC50: 3.31 µM for the first, 2.54 µM for the second.

First: Nc1n[nH]c2ccc(-c3ccc(NS(=O)(=O)[C@@H]4CCCC[C@@H]4O)cc3Cl)nc12 [Example 60, (1R,2S)—N-(4-(3-amino-1H-pyrazolo[4,3-b]pyridin-5-yl)-3-chlorophenyl)-2-hydroxycyclohexane-1-sulfonamide]
Second: Nc1n[nH]c2ccc(-c3ccc(NS(=O)(=O)[C@H]4CCCC[C@H]4O)cc3Cl)nc12 [Example 14, (1S,2R)—N-(4-(3-amino-1H-pyrazolo[4,3-b]pyridin-5-yl)-3-chlorophenyl)-2-hydroxycyclohexane-1-sulfonamide]
The EC50 of the first is 2.7-fold higher: 3.04 µM for the first, 1.12 µM for the second.

Going from Cc1cc(S(=O)(=O)N2CC(F)(F)C[C@H]2CO)ccc1-c1ccc2[nH]nc(N)c2n1 [Example 37, (S)-(1-((4-(3-amino-1H-pyrazolo[4,3-b]pyridin-5-yl)-3-methylphenyl)sulfonyl)-4,4-difluoropyrrolidin-2-yl)methanol] to Cc1cc(S(=O)(=O)N2CC(F)(F)CC2C(N)=O)ccc1-c1ccc2[nH]nc(N)c2n1 (stereo not shown) [Example 34, 1-((4-(3-amino-1H-pyrazolo[4,3-b]pyridin-5-yl)-3-methylphenyl)sulfonyl)-4,4-difluoropyrrolidine-2-carboxamide], the EC50 rises from 0.593 µM to 5.02 µM (8.5-fold). The first is the more potent here.

Compared with Nc1n[nH]c2ccc(-c3ccc(NS(=O)(=O)c4ccc(F)cc4)cc3Cl)nc12 [Example 6, N-(4-(3-amino-1H-pyrazolo[4,3-b]pyridin-5-yl)-3-chlorophenyl)-4-fluorobenzenesulfonamide], Nc1n[nH]c2ccc(-c3ccc(NS(=O)(=O)c4ccc(OC(F)(F)F)cc4)cc3Cl)nc12 [Example 88, N-(4-(3-amino-1H-pyrazolo[4,3-b]pyridin-5-yl)-3-chlorophenyl)-4-(trifluoromethoxy)benzenesulfonamide] is 4.2-fold higher in EC50: 0.58 µM for the first, 2.43 µM for the second. The first is the more potent here.

Going from COc1ccc(S(=O)(=O)Nc2ccc(-c3ccc4[nH]nc(N)c4n3)c(Cl)c2)cc1NC(C)=O [Example 61, N-(5-(N-(4-(3-amino-1H-pyrazolo[4,3-b]pyridin-5-yl)-3-chlorophenyl)sulfamoyl)-2-methoxyphenyl)acetamide] to Cc1cccc(S(=O)(=O)Nc2ccc(-c3ccc4[nH]nc(N)c4n3)c(Cl)c2)c1 [Example 84, N-(4-(3-amino-1H-pyrazolo[4,3-b]pyridin-5-yl)-3-chlorophenyl)-3-methylbenzenesulfonamide], the EC50 falls from 1.54 µM to 0.045 µM (34-fold).

First: Cc1cc(NS(=O)(=O)c2cccc(Cl)c2)ccc1-c1ccc2[nH]nc(N)c2n1 [Example 42, N-(4-(3-amino-1H-pyrazolo[4,3-b]pyridin-5-yl)-3-methylphenyl)-3-chlorobenzenesulfonamide]
Second: Nc1n[nH]c2ccc(-c3ccc(S(=O)(=O)Nc4ccccc4)cc3F)nc12 [Example 49, 4-(3-amino-1H-pyrazolo[4,3-b]pyridin-5-yl)-3-fluoro-N-phenylbenzenesulfonamide]
The EC50 of the first is 2.3-fold higher: 2 µM for the first, 0.87 µM for the second.

First: Nc1n[nH]c2ccc(-c3ccc(NS(=O)(=O)c4ccc5c(c4)NCCO5)cc3Cl)nc12 [Example 53, N-(4-(3-amino-1H-pyrazolo[4,3-b]pyridin-5-yl)-3-chlorophenyl)-3,4-dihydro-2H-benzo[b][1,4]oxazine-6-sulfonamide]
Second: Nc1n[nH]c2ccc(-c3ccc(NS(=O)(=O)C4CCCCC4)cc3Cl)nc12 [Example 15, N-(4-(3-amino-1H-pyrazolo[4,3-b]pyridin-5-yl)-3-chlorophenyl)cyclohexanesulfonamide]
The EC50 of the first is 3.1-fold higher: 2.74 µM for the first, 0.874 µM for the second.

First: CC1(C)CCC(NS(=O)(=O)c2ccc(-c3ccc4[nH]nc(N)c4n3)c(Cl)c2)CC1 [Example 24, 4-(3-amino-1H-pyrazolo[4,3-b]pyridin-5-yl)-3-chloro-N-(4,4-dimethylcyclohexyl)benzenesulfonamide]
Second: Cc1cc(S(=O)(=O)N2CCC[C@H]2CO)ccc1-c1ccc2[nH]nc(N)c2n1 [Example 70, (S)-(1-((4-(3-amino-1H-pyrazolo[4,3-b]pyridin-5-yl)-3-methylphenyl)sulfonyl)pyrrolidin-2-yl)methanol]
The EC50 of the first is 2.1-fold higher: 1.59 µM for the first, 0.762 µM for the second. The second is the more potent here.

CC(C)(C)NS(=O)(=O)c1ccc(-c2ccc3[nH]nc(N)c3n2)c(F)c1 [Example 75, 4-(3-amino-1H-pyrazolo[4,3-b]pyridin-5-yl)-N-tert-butyl-3-fluorobenzenesulfonamide] showed an EC50 of 1.52 µM.

Same assay, conditions: Mus musculus, 96 h; Table 1; TT-D6 Scx-luciferase cells, 1 ng/ml TGFβ1, four days; read-out: Scx-Luc (EC50 uM)

C[C@@H](O)c1nc2cnc3[nH]ccc3c2n1[C@@H]1CCCOC1 [reference compound] and CC1(C)CN(C(=O)c2ccc(-c3cccc4nc(NC(=O)C5CC5)nn34)cc2)C1 [reference compound] are within 1.5-fold of each other in EC50: 1.34 µM for the first, 1.42 µM for the second.

For C1=C/COCc2cc(ccc2OCCN2CCCC2)Nc2nccc(n2)-c2cccc(c2)COC/1 [reference compound], the EC50 was 1.06 µM.

Same assay, conditions: Mus musculus; further compounds not numbered as examples; read-out: EC50 in the Scx-Luc assay

For Nc1n[nH]c2ccc(-c3ccc(S(=O)(=O)N4CCC[C@H]4CO)cc3Cl)nc12 [(S)-(1-((4-(3-amino-1H-pyrazolo[4,3-b]pyridin-5-yl)-3-chlorophenyl)sulfonyl)pyrrolidin-2-yl)methanol], the EC50 was over 10 µM.
